According to ChEMBL document CHEMBL3988442, “University of Dundee, Small-Polar-MMV Screening Library” (2021):
Where “and” joins values, the source holds several entries; their conditions need not be identical. Identical values can stand only once.

How the values were obtained:
Lysine--tRNA ligase = Lysine--tRNA ligase (Plasmodium falciparum (isolate 3D7), UniProt Q8IDJ8); experiment: Pf-KRS-1 (Lysyl-RNA Synthetase-1, KRS-1, cytosolic KRS) from Plasmodium falciparum. Inhibitor assay, 384 well plate, luminescence read.; format: functional
Lysine--tRNA ligase, sequence (Q8IDJ8 whole entry): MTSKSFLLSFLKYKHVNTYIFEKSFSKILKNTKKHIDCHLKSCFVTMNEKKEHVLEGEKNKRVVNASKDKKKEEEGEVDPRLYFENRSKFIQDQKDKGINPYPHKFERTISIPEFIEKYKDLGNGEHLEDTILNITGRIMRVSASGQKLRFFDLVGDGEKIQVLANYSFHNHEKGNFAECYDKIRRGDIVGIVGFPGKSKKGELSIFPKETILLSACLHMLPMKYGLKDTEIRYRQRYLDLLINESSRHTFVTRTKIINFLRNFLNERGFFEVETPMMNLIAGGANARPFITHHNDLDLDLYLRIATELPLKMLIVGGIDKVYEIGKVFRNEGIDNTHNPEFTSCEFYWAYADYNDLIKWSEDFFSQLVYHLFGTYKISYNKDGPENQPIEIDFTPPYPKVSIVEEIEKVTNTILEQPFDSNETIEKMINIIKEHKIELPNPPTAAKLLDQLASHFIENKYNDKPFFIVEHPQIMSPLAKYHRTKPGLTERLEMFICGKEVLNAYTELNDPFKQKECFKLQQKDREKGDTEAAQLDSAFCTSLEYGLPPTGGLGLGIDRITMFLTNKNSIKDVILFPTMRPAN

[1] = target: T1, Aspartate--tRNA(Asp/Asn) ligase (Mycobacterium tuberculosis (strain ATCC 25618 / H37Rv), UniProt P9WFW3); experiment: Assay for Asp RNA synthetase-1 from Mycobacterium tuberculosis; format: functional
T1 sequence (P9WFW3 whole entry): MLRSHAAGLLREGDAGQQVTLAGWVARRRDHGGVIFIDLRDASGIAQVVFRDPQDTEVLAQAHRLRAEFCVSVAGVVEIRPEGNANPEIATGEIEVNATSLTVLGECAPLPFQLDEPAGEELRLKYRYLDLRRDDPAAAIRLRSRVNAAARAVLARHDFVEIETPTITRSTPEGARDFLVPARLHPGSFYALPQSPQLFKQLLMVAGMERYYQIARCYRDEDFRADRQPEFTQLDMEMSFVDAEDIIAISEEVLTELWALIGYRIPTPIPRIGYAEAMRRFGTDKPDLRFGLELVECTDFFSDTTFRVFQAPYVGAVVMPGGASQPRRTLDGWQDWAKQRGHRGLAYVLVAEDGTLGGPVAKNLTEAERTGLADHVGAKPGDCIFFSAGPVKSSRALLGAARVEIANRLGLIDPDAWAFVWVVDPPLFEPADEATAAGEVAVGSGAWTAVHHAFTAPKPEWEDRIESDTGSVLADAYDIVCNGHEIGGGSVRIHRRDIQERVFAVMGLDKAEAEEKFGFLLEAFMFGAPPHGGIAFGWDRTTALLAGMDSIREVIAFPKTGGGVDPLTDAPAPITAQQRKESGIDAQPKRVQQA

Histidine--tRNA ligase [2] = target: T2, Histidine--tRNA ligase (Trypanosoma cruzi (strain CL Brener), UniProt Q4DA54); experiment: Trypanosoma cruzi histidyl tRNA synthetase (Tc-HisRS); format: functional
T2 sequence (Q4DA54 whole entry): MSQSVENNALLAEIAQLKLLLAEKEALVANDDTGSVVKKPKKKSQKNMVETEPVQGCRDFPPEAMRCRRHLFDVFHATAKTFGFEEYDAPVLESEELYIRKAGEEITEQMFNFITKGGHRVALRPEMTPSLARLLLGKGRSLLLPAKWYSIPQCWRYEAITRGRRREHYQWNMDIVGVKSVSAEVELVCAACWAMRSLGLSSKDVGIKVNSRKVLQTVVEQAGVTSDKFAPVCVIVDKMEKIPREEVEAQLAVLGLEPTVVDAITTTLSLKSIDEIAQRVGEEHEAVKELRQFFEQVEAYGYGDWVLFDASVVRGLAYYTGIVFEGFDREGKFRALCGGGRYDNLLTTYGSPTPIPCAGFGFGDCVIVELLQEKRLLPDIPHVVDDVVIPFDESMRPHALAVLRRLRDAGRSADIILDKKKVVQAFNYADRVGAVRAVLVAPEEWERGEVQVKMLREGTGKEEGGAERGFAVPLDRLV

[3] = target: Protein translocase subunit SecA (Escherichia coli (strain K12), UniProt P10408); experiment: Assay to Identify E. coli SecA ATPase Inhibitors; format: functional
Protein translocase subunit SecA, sequence (P10408 whole entry): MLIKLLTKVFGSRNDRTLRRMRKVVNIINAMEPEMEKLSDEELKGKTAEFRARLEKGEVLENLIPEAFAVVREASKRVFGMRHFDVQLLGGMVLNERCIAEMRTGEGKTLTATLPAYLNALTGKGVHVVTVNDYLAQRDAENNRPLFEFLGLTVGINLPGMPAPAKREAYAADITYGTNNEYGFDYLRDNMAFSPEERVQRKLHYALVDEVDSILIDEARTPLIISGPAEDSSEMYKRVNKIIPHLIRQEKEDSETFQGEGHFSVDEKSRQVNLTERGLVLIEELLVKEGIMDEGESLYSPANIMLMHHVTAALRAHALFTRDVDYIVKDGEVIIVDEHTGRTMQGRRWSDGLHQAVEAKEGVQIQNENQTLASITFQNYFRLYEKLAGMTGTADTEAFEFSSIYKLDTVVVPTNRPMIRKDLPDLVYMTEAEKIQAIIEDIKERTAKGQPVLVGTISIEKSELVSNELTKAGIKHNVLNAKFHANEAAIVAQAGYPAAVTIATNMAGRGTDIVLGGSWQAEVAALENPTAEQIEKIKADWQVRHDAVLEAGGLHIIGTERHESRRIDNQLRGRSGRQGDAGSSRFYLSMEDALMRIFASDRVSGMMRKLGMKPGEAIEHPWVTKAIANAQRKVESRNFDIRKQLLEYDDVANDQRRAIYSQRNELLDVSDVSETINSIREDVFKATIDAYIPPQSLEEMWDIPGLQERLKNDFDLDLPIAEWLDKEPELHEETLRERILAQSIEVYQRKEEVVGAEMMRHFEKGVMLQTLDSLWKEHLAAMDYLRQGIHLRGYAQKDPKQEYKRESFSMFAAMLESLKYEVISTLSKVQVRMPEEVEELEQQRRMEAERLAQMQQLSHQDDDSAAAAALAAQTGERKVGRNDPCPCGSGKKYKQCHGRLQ

Histidine--tRNA ligase [4] = target: T3, Histidine--tRNA ligase (Leishmania infantum, UniProt A4I591); experiment: Leishmania infantum Histidine tRNA synthetase (LdHisRS); format: functional
T3 sequence (A4I591 whole entry): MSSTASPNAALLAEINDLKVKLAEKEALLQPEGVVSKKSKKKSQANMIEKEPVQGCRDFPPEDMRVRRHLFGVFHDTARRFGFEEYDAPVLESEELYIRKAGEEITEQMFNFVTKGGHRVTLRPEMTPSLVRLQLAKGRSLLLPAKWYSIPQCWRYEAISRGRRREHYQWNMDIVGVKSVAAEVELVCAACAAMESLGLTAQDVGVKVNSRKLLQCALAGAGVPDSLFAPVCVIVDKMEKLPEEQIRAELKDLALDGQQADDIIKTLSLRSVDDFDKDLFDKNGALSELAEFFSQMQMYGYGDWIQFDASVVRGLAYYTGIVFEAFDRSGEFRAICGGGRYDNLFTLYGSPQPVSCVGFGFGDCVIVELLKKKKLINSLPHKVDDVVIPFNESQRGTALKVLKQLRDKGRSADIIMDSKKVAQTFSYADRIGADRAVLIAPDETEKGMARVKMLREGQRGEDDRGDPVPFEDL

[5] = microbe, parasite or virus in culture; conditions: Mycobacterium tuberculosis, 96 h, read-out: pIC50 (converted)
[6] = target: T4, Ubiquitin-activating enzyme e1, putative (Leishmania donovani (strain BPK282A1), UniProt E9BSI1); experiment: Leishmania donovani Ubiquitin Activating Enzyme (LdE1); format: functional
T4 sequence (E9BSI1 whole entry): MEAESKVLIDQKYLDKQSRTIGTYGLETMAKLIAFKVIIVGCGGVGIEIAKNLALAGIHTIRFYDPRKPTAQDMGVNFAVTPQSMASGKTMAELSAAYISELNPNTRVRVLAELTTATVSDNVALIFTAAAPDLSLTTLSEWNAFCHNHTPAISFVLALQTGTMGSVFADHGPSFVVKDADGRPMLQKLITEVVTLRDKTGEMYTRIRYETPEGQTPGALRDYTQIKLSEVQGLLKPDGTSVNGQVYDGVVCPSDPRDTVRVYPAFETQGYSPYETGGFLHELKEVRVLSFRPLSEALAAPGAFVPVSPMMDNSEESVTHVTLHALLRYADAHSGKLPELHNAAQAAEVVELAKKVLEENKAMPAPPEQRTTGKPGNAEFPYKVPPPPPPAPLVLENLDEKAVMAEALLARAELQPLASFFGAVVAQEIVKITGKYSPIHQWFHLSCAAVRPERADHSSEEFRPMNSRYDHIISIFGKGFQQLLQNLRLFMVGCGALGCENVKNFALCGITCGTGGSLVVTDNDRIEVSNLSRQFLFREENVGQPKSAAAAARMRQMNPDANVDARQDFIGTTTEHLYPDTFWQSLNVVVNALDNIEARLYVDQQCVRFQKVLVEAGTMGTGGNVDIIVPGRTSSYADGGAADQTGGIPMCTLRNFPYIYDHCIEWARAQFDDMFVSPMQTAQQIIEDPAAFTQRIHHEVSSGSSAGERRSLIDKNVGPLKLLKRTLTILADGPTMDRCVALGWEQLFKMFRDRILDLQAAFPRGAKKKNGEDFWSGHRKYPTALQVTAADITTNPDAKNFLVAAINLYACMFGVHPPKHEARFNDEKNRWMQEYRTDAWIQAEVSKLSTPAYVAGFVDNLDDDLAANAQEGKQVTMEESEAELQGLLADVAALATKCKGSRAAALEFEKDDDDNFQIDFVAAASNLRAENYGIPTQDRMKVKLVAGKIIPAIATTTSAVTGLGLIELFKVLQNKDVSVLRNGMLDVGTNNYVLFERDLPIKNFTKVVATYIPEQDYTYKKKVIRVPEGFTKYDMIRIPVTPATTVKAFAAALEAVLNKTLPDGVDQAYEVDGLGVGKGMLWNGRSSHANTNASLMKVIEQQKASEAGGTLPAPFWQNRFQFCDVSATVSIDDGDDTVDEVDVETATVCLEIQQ

[7] = microbe, parasite or virus in culture; conditions: Mycobacterium tuberculosis, 72 h, read-out: pIC50 (converted)
[8] = target: T5, Coenzyme A biosynthesis bifunctional protein CoaBC (Mycobacterium tuberculosis (strain ATCC 25618 / H37Rv), UniProt P9WNZ1); experiment: Biomol Green assay for MtCoaBC inhibitor, OD650 read; format: functional
T5 sequence (P9WNZ1 whole entry): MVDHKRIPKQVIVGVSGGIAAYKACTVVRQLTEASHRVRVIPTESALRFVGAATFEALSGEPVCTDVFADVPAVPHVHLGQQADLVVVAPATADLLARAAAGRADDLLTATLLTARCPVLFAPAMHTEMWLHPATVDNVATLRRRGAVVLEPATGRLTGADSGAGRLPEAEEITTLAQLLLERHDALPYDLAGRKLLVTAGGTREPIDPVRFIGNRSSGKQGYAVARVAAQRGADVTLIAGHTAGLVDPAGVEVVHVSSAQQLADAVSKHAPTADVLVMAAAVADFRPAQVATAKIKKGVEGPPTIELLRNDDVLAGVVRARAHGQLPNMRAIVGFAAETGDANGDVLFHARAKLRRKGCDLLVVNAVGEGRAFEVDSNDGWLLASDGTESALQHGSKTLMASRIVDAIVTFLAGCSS

[9] = To identify inhibition of the IFN signalling (Jak-Stat) pathway via expression of an eGFP reporter gene under the control of an IFN-stimulated response element (ISRE) containing MxA promoter.; format: functional, Homo sapiens

SMILES | IC50 (Lysine--tRNA ligase) | IC50 [1] | IC50 (Histidine--tRNA ligase [2]) | IC50 [3] | IC50 (Histidine--tRNA ligase [4]) | IC50 [5] | IC50 [6] | IC50 [7] | IC50 [8] | pIC50 [9]
CNc1nc2c(s1)C(c1c(F)cccc1Cl)CC(=O)N2 (configuration not stated) | > 50.1 µM | 46.5 µM and 15.4 µM | 20.4 µM and 19.2 µM | 20.4 µM and 24.2 µM | 7.84 µM and 5.67 µM |  |  |  |  | 
COc1cccc(C2CC(=O)Nc3nc(N)sc32)c1OC (configuration not stated) | > 50.1 µM | 2.74 µM and 8.57 µM | 3.98 µM and 3.84 µM | 9.52 µM and 9.23 µM | 1.21 µM and 1.37 µM | 44.8 µM | 45.3 µM and 45 µM | 42.2 µM |  | 
CCC(C)CNc1ccc2oc(COC)nc2c1 (configuration not stated) | > 50.1 µM | 36.7 µM and 47.3 µM |  |  | 11.1 µM and 14.1 µM | 34.4 µM | > 100 µM | 49.1 µM |  | 
COCc1nc2cc(NCc3ccncc3)ccc2o1 |  | 11.6 µM and 26.4 µM |  |  | 4.22 µM and 3.13 µM |  | 50.3 µM and 60.4 µM |  | > 50.1 µM | 
CCCN(C(=O)c1ccccn1)c1nc2c(s1)CCc1c-2cnn1C | > 50.1 µM | 27.3 µM and 35.3 µM |  |  | 18.7 µM and 14.4 µM |  | > 100 µM |  |  | 
Cn1cc(NC(=O)N2CCC(c3ccccc3)CC2)ccc1=O | > 50.1 µM | 13.6 µM and 15.7 µM | 63 µM and 58.7 µM |  | 2.98 µM and 3.9 µM |  | > 100 µM |  |  | 
Cn1cc(NS(=O)(=O)c2ccc(OC(F)(F)F)cc2)ccc1=O | > 50.1 µM | 98.4 µM and 74.5 µM |  |  | 25.5 µM and 16.7 µM |  |  |  |  | 5.067 and 4.969
Cc1ccc(-c2nc(CN3CCc4nn(C)c(=O)cc4C3)co2)cc1 |  | > 100 µM and 52.7 µM |  |  | 14.2 µM and 25.1 µM |  | > 100 µM |  |  | 
Cn1nc2c(cc1=O)CN(Cc1coc(-c3cccs3)n1)CC2 |  | 51.7 µM and 65.4 µM |  |  | 13.1 µM and 11.1 µM |  | > 100 µM |  |  | 
Cn1nc2c(cc1=O)CN(Cc1nnc(C3CC3)o1)CC2 | > 50.1 µM | 77.5 µM and > 100 µM |  |  | 17.5 µM and 14.6 µM |  | > 100 µM |  | > 30.2 µM | 
